Reference: PMC7933930, “Development of a small molecule that corrects misfolding and increases secretion of Z α1‐antitrypsin” (EMBO Molecular Medicine, 2021)

What was measured:
Z α1‐antitrypsin = Z α1‐antitrypsin (Homo sapiens, UniProt P01009, E366K); test: TR‐FRET immunoassay (2C1 antibody) of Z α1‐antitrypsin polymerisation, 37°C, 72 h; format: biochemical; set-up: purified from the plasma of Z α1‐antitrypsin homozygotes; from tissue; host or cells: human plasma of Z α1-antitrypsin homozygotes; conditions: 5 nM Z α1‐antitrypsin, 37°C, 72 h; read-out: pIC50, blocking polymerisation in the TR‐FRET immunoassay (converted)
From the text: Z α1‐antitrypsin is a conformationally dynamic molecule (Lomas et al, 1992; Knaupp et al, 2010) that represents a non‐classical target for drug discovery. A cell‐free assay approach to hit finding was undertaken so as not to miss compounds that bind α1‐antitrypsin and block polymerisation but lack the molecular properties to cross cell membranes. This comprised the following: (i) an encoded library technology (ELT) screen (Goodnow et al, 2017) of a library with a nominal diversity of 2 × 10^12 unique components to identify binders to Z α1‐antitrypsin and (ii) a high‐throughput screen (HTS) of the GSK compound collection (~ 1.7 million compounds) for small molecules that could block polymerisation of Z α1‐antitrypsin. […] In the HTS assay, polymerisation of purified Z α1‐antitrypsin was induced by incubation at 37°C for 72 h in the presence of test compounds, with end‐point quantification of polymers performed using the polymer‐specific monoclonal antibody, 2C1 (Miranda et al, 2010) in a TR‐FRET‐based immunoassay. […]
An antibody‐based time‐resolved fluorescence resonance energy transfer (TR‐FRET) assay was developed to monitor the polymerisation of 5 nM Z α1‐antitrypsin following incubation with varying concentrations of compounds at 37°C for 72 h. This assay used the 2C1 monoclonal antibody (1.25 nM) that is specific to pathological polymers of α1‐antitrypsin (Miranda et al, 2010), a polyclonal antibody (1/320 dilution) that binds to all forms of α1‐antitrypsin (Abcam product 9373), an anti‐mouse IgG (1.5 nM) labelled with fluorescence donor Eu‐W1024 (Perkin Elmer product AD0076) and an anti‐rabbit IgG (14.3 nM labelled with acceptor [APC]). […] The TR‐FRET signal was read on an Envision plate reader (PerkinElmer), by excitation of Europium at 337 nm and detection of emission at 665 and 620 nm.

[1] = molecular target: bovine α‐chymotrypsin (bovine)
[2] = tested on: Z α1‐antitrypsin polymers; set-up: method as in Hidvegi et al, 2010; conditions: Z α1‐antitrypsin transgenic mice, 2 weeks of dosing; ref Hidvegi et al, 2010; cited from earlier work

Sequence of wild‐type M α1‐antitrypsin, purified from plasma (P01009 25-418): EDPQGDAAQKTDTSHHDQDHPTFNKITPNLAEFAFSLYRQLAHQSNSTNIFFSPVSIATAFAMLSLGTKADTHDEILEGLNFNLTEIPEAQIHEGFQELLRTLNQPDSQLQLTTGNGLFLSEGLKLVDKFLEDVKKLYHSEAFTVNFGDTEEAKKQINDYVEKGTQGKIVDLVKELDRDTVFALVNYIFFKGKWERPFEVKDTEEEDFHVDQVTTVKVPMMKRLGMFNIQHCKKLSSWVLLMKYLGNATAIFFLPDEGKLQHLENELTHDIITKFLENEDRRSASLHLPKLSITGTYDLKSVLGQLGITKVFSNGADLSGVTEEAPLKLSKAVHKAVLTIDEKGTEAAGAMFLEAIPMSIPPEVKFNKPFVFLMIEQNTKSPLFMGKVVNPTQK
Sequence of Z α1‐antitrypsin (P01009 25-418 E366K): as the sequence (P01009 25-418) above, with E342K counted along it

## CCCC(NC(=O)c1ccc2cc[nH]c2c1)C(O)c1ccccc1 (stereo not drawn) [GSK425]
Z α1‐antitrypsin
  IC50: 316 nM

## wild‐type M α1‐antitrypsin, purified from plasma (from UniProt P01009 25-418) (natural protein)
[1]
  protease inhibitory activity (stoichiometry of inhibition, residual chymotrypsin activity) after pre‐incubation with 50 µM GSK716: > 98%

## NC(=O)N1c2ccccc2C=Cc2ccccc21 [carbamazepine]
[2]
  effect on liver polymer: profound effects on liver polymer
